For assay [1], the system named is KMS12PE Bcl2 G101V. Kind of assay: In vitro cytotoxicity CellTiterGlo 72 h, KMS12PE Bcl2 G101V. In kind it is cell-based. The conditions noted are these: Homo sapiens, KMS-12-PE, read-out: C50 nM, KMS12PE Bcl2 G101V. Here is the method: (§1) KMS-12-PE (ACC 606) were purchased from the Leibniz-Institute DSMZ (Braunschweig, Germany) and were grown at 37° C. in a humidified atmosphere with 5% CO2 in media recommended by the suppliers. Lentiviral particles containing Bcl-2 wild type (also named “Bcl2 WT”), Bcl-2 mutated on G101V (also named “Bcl2 G101V”), Bcl-2 mutated on D103Y (also named “Bcl2 D103Y”), Bcl-2 mutated on D103V (also named “Bcl2 D103V”), Bcl-2 mutated on D103E (also named “Bcl2 D103E”), Bcl-2 mutated on F104I (also named “Bcl2 F104I”), Bcl-2 mutated on F104L (also named “Bcl2 F104L”), Bcl-2 mutated on D111A (also named “Bcl2 D111A”), Bcl-2 mutated on A113G (also named “Bcl2 A113G”), Bcl-2 mutated on R129L (also named “Bcl2 R129L”), Bcl-2 mutated on V156D (also named “Bcl2 V156D”) were cloned into pcLV-CMV-DEST-IRES-TagRFP. Lentiviral particles (1×10^6) were mixed with Polybrene at 8 μg/ml and transduced by spinoculation for 1 h at 32° C. and incubated overnight. After 8 days, TagRFP positive-cells were sorted by FACS. BCL2 expression was monitored by immunoblotting using anti-Flag and anti-BCL2 antibodies. Cells were seeded into 96-wells plates and treated with 1:3.16 serial dilution of compounds (9 different concentrations). Cell viability was assessed using CellTiterGlo reagent following treatment for 72 h. Results were normalized to the viability of cells without compounds (control wells). The C50 values were calculated using nonlinear regression algorithms in XCell software.

In assay [2] the target is BCL2 WT (Homo sapiens (Human), UniProt P10415). The assay is described as follows: TR-FRET competitive binding assay, BCL2 WT. Conditions: Ki determined from IC50, read-out: TR_FRET EKI_Bcl2 WT. In outline: (§2)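 Competitive TR-FRET displacement of fluorescein-PUMA peptide (2 or 20 nM) from 0.5 nM terbium-labelled N-terminal Halo-fusion BCL2 (1-207, wild type or mutant) or BCLXL (2-196), expressed in E. coli. Buffer 50 mM Hepes pH 7.5, 150 mM NaCl, 5% DMSO; 2 h at 23°C. 520/495 nm ratio fitted over 11 points for IC50, converted to Ki.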
(In general: In TR-FRET formats the signal depends on donor and acceptor labels being close together.)

In assay [3] the target is BCL2 F104I (Homo sapiens, UniProt P10415, F104I). The assay is described as follows: TR-FRET competitive binding assay, BCL2 F104I. Conditions: Ki determined from IC50, read-out: TR_FRET EKI_Bcl2 F104I. An outline of the steps: as §2
Assay [4] relates to KMS12PE Bcl2 D111A. Kind of assay: In vitro cytotoxicity CellTiterGlo 72 h, KMS12PE Bcl2 D111A. It counts as cell-based. The conditions noted are these: Homo sapiens, KMS-12-PE, read-out: C50 nM, KMS12PE Bcl2 D111A. Here is the method: as §1
(Cellular ATP, detected with luciferase, serves as a proxy for viable cell number.)

Assay [5] has as its target BCL2 D103Y (Homo sapiens, UniProt P10415, D103Y). The assay is described as follows: TR-FRET competitive binding assay, BCL2 D103Y. The conditions noted are these: Ki determined from IC50, read-out: TR_FRET EKI_Bcl2 D103Y. In outline: as §2
The target in assay [6] is BCLXL WT (Homo sapiens (Human), UniProt Q07817). The assay is described as follows: TR-FRET competitive binding assay, BCLXL WT. The conditions noted are these: for Ki: BCLXL WT, Ki determined from IC50, read-out: TR_FRET EKI BclxL; for TR_FRET EKI BCLxL/WT selectivty ratio: ratio Ki BCLxL / Ki BCL2 WT. In outline:
as §2

The subject of assay [7] is KMS12PE Bcl2 A113G. The assay is described as follows: In vitro cytotoxicity CellTiterGlo 72 h, KMS12PE Bcl2 A113G. It counts as cell-based. Conditions: Homo sapiens, KMS-12-PE, read-out: C50 nM, KMS12PE Bcl2 A113G. Here is the method: as §1
Assay [8] addresses BCL2 D111A (Homo sapiens, UniProt P10415, D111A). The assay is described as follows: TR-FRET competitive binding assay, BCL2 D111A. The conditions noted are these: Ki determined from IC50, read-out: TR_FRET EKI_Bcl2 D111A. An outline of the steps: as §2
The subject of assay [9] is KMS12PE Bcl2 R129L. The assay is described as follows: In vitro cytotoxicity CellTiterGlo 72 h, KMS12PE Bcl2 R129L. It counts as cell-based. Conditions: Homo sapiens, KMS-12-PE, read-out: C50 nM, KMS12PE Bcl2 R129L. Here is the method: as §1
Assay [10] concerns KMS12PE Bcl2 F104I. The assay is described as follows: In vitro cytotoxicity CellTiterGlo 72 h, KMS12PE Bcl2 F104I. In kind it is cell-based. The conditions noted are these: Homo sapiens, KMS-12-PE, read-out: C50 nM, KMS12PE Bcl2 F104I. As for the experimental part:
as §1

The text below walks through data of patent publication US20250179047A1, “5-[7-(3,4-DIHYDRO-1H-ISOQUINOLINE-2-CARBONYL)-1,2,3,4 TETRAHYDROISOQUINOLIN-6-YL]-1H-PYRROLE-3-CARBOXAMIDE DERIVATIVES, PHARMACEUTICAL COMPOSITIONS CONTAINING THEM AND THEIR USES AS PRO-APOPTOTIC AGENTS” (LES LABORATOIRES SERVIER, priority 2022, published 2025).

Sequence of BCL2 WT (P10415 other isoform, or with tags, fused parts or gaps): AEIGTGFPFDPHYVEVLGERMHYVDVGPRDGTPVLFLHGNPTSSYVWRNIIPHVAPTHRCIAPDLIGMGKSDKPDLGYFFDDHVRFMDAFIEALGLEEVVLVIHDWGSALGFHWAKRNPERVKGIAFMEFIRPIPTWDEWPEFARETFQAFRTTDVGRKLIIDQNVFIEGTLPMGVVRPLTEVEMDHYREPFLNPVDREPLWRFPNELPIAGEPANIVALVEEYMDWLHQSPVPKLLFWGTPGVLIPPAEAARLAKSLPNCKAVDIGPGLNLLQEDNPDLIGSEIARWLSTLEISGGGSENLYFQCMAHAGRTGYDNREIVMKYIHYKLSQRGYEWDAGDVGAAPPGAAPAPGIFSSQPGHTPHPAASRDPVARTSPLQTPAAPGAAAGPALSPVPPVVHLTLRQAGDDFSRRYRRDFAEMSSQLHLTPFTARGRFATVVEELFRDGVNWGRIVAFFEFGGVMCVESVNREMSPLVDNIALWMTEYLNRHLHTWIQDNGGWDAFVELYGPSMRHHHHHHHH
Sequence of BCLXL WT (Q07817 other isoform, or with tags, fused parts or gaps): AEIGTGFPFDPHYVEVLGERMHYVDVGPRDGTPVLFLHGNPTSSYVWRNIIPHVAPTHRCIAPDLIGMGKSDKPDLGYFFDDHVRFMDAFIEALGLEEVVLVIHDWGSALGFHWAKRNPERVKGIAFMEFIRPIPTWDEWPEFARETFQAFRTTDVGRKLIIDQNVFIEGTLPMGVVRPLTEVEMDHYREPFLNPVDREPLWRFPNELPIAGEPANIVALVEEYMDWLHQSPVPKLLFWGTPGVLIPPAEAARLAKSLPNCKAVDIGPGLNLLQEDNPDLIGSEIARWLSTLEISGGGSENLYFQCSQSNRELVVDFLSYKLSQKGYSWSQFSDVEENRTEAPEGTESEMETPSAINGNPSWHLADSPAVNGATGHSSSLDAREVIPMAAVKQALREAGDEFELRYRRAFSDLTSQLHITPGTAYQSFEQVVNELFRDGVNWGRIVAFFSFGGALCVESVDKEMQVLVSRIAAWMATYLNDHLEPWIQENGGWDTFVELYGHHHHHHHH

For the compound `Cc1c(N(C(=O)c2cc(-c3cc4c(cc3C(=O)N3Cc5ccccc5C[C@H]3C)CN(C(=O)Cc3ccc(OCCN5CCOCC5)cc3)CC4)n(C)c2C)c2ccc(O)cc2)cc(C#N)n1C` [Example 21, N-(5-cyano-1,2-dimethyl-1H-pyrrol-3-yl)-N-(4-hydroxyphenyl)-1,2-dimethyl-5-{7-[(3R)-3-methyl-1,2,3,4-tetrahydroisoquinoline-2-carbonyl]-2-(2-{4-[2-(morpholin-4-yl)ethoxy]phenyl}acetyl)-1,2,3,4-tetrahydroisoquinolin-6-yl}-1H-pyrrole-3-carboxamide], the IC50 in [1] is 9.36 nM; in [4], 1.27 nM; in assay [7], 4.06 nM; in assay [9] it was 1.51 nM; in assay [10] it was 45 nM. The Ki in assay [2] came out at 0.11 nM; in [3], 0.29 nM; in assay [5], 0.35 nM; in assay [6], 1.1 nM; in [8] it was 0.19 nM. Moreover, the “TR_FRET EKI BCLxL/WT selectivty ratio” value in assay [6] is recorded as 10.0.
Take `Cc1c(N(C(=O)c2cc(-c3cc4c(cc3C(=O)N3Cc5ccccc5C[C@H]3C)CN(C(=O)Cc3ccc(OCCC5CCOCC5)cc3)CC4)n(C)c2C)c2ccc(O)cc2)cc(C#N)n1C` [Example 27, N-(5-cyano-1,2-dimethyl-1H-pyrrol-3-yl)-N-(4-hydroxyphenyl)-1,2-dimethyl-5-{7-[(3R)-3-methyl-1,2,3,4-tetrahydroisoquinoline-2-carbonyl]-2-(2-{4-[2-(oxan-4-yl)ethoxy]phenyl}acetyl)-1,2,3,4-tetrahydroisoquinolin-6-yl}-1H-pyrrole-3-carboxamide]: the IC50 in assay [1] amounted to 7.19 nM; in assay [4] it was 0.86 nM; in [7], 2.79 nM; in assay [9], 0.99 nM; in assay [10], 29.1 nM. In addition, the Ki in assay [2] turned out to be 0.8 nM; in [3], 2.36 nM; in assay [5], 0.73 nM; in assay [6] it was 10.1 nM; in assay [8], 1.67 nM. For the same compound, the “TR_FRET EKI BCLxL/WT selectivty ratio” value in assay [6] amounted to 12.6.
For `Cc1c(N(C(=O)c2cc(-c3cc4c(cc3C(=O)N3Cc5ccccc5C[C@H]3CN3CCCCC3)CN(C(=O)Cc3ccc(OCCN5CCOCC5)cc3F)CC4)n(C)c2C)c2ccc(O)cc2)cc(C#N)n1C` [Example 43, N-(5-cyano-1,2-dimethylpyrrol-3-yl)-5-[2-(2-{2-fluoro-4-[2-(morpholin-4-yl)ethoxy]phenyl}acetyl)-7-{[(3S)-3-(piperidin-1-ylmethyl)-3,4-dihydro-1H-isoquinolin-2-yl]carbonyl}-3,4-dihydro-1H-isoquinolin-6-yl]-N-(4-hydroxyphenyl)-1,2-dimethylpyrrole-3-carboxamide], the IC50 in assay [1] is 10 nM; in assay [4], 1.13 nM; in [7], 2.5 nM; in assay [9] it was 0.99 nM; in [10], 29.3 nM. Further, the Ki in [2] amounted to 0.04 nM; in assay [3] it was 0.16 nM; in assay [5] it was 0.14 nM; in assay [6], 2.2 nM; in [8], 0.1 nM. Moreover, the “TR_FRET EKI BCLxL/WT selectivty ratio” value in assay [6] was 55.0.
As to `Cc1c(N(C(=O)c2cc(-c3cc4c(cc3C(=O)N3Cc5ccccc5C[C@H]3C)CN(C(=O)Cc3ccc(N5CCN6CCOC[C@@H]6C5)cc3F)CC4)n(C)c2C)c2ccc(O)cc2)cc(C#N)n1C` [Example 45, 5-[2-(2-{4-[(9aS)-octahydropyrazino[2,1-c][1,4]oxazin-8-yl]-2-fluorophenyl}acetyl)-7-[(3R)-3-methyl-1,2,3,4-tetrahydroisoquinoline-2-carbonyl]-1,2,3,4-tetrahydroisoquinolin-6-yl]-N-(5-cyano-1,2-dimethyl-1H-pyrrol-3-yl)-N-(4-hydroxyphenyl)-1,2-dimethyl-1H-pyrrole-3-carboxamide], the IC50 in assay [1] was 18.2 nM; in assay [4] it was 2.05 nM; in assay [7], 8.03 nM; in [9], 1.89 nM; in [10], 114 nM. The Ki was 0.08 nM in assay [2]; 1.65 nM in assay [3]; 0.15 nM in assay [5]; 2.5 nM in assay [6]; 0.19 nM in assay [8]. Besides, the “TR_FRET EKI BCLxL/WT selectivty ratio” value in assay [6] is on record as 31.6.
For `Cc1c(N(C(=O)c2cc(-c3cc4c(cc3C(=O)N3Cc5ccccc5C[C@H]3C)CN(C(=O)Cc3ccc(CCN5CCC(F)(F)CC5)cc3)CC4)n(C)c2C)c2ccc(O)cc2)cc(C#N)n1C` [Example 51, N-(5-cyano-1,2-dimethylpyrrol-3-yl)-5-[2-(2-{4-[2-(4,4-difluoropiperidin-1-yl)ethyl]phenyl}acetyl)-7-{[(3R)-3-methyl-3,4-dihydro-1H-isoquinolin-2-yl]carbonyl}-3,4-dihydro-1H-isoquinolin-6-yl]-N-(4-hydroxyphenyl)-1,2-dimethylpyrrole-3-carboxamide], the IC50 turned out to be 20.2 nM in [1]; 3.21 nM in assay [4]; 9.24 nM in assay [7]; 3.22 nM in [9]; 321 nM in assay [10]. Moreover, the Ki in assay [2] worked out at 0.22 nM; in assay [3], 4.91 nM; in assay [5], 0.92 nM; in assay [6] it was 4.4 nM; in assay [8], 0.89 nM. For the same compound, in [6], the “TR_FRET EKI BCLxL/WT selectivty ratio” value was found to be 20.0.
Turning to `COC[C@@H]1Cc2ccccc2CN1C(=O)c1cc2c(cc1-c1cc(C(=O)N(c3ccc(O)cc3)c3cc(C#N)n(C)c3C)c(C)n1C)CCN(C(=O)Cc1ccc(OCCC3CCOCC3)cc1F)C2` [Example 52, N-(5-cyano-1,2-dimethylpyrrol-3-yl)-5-[2-(2-{2-fluoro-4-[2-(oxan-4-yl)ethoxy]phenyl}acetyl)-7-{[(3S)-3-(methoxymethyl)-3,4-dihydro-1H-isoquinolin-2-yl]carbonyl}-3,4-dihydro-1H-isoquinolin-6-yl]-N-(4-hydroxyphenyl)-1,2-dimethylpyrrole-3-carboxamide], the IC50 in assay [1] worked out at 10.6 nM; in assay [4] it was 1.21 nM; in assay [7] it was 3.99 nM; in assay [9] it was 1.89 nM; in [10] it was 11.1 nM. Also, the Ki in [2] came out at 0.2 nM; in [3], 0.77 nM; in [5], 0.23 nM; in assay [6] it was 3 nM; in assay [8], 0.64 nM. Moreover, the “TR_FRET EKI BCLxL/WT selectivty ratio” value in assay [6] worked out at 15.2.
On to `Cc1c(N(C(=O)c2cc(-c3cc4c(cc3C(=O)N3Cc5ccccc5C[C@H]3C)CN(C(=O)Cc3ccc(OCCN5CCC(F)CC5)cc3)CC4)n(C)c2C)c2ccc(O)cc2)cc(C#N)n1C` [Example 53, N-(5-cyano-1,2-dimethyl-1H-pyrrol-3-yl)-5-[2-(2-{4-[2-(4-fluoropiperidin-1-yl)ethoxy]phenyl}acetyl)-7-[(3R)-3-methyl-1,2,3,4-tetrahydroisoquinoline-2-carbonyl]-1,2,3,4-tetrahydroisoquinolin-6-yl]-N-(4-hydroxyphenyl)-1,2-dimethyl-1H-pyrrole-3-carboxamide], for which the IC50 in [1] worked out at 16.3 nM; in assay [4], 2.19 nM; in [7] it was 5.68 nM; in [9] it was 2.38 nM; in [10] it was 72.7 nM. Further, the Ki in assay [2] was found to be 0.07 nM; in assay [3] it was 0.35 nM; in [5], 0.18 nM; in [6], 1.2 nM; in assay [8], 0.18 nM. Besides, the “TR_FRET EKI BCLxL/WT selectivty ratio” value in assay [6] was determined as 18.5.
